Measurements as given in US9540357B1, “15-aryl prostaglandins as EP4 agonists, and methods of use thereof” (Allergan, Inc., priority 2014, dated 2017).
Where “and” joins values, the source holds several entries; their conditions need not be identical. Identical values can stand only once.

Tests used:
hEP1 = hEP1 (Homo sapiens (Human), UniProt P34995); experiment: FLIPR calcium signal, hEP1; format: cell-based; conditions: HEK-293(EBNA) cells expressing hEP1
Description: (§1) HEK-293(EBNA) cells, stably expressing one type or subtype of recombinant human prostaglandin receptors (prostaglandin receptors expressed: hDP/Gqs5; hEP1; hEP2/Gqs5: hEP3A/Gqi5; hEP4/Gqs5; hFP; hIP; hTP), were cultured in 100 mm culture dishes in high-glucose DMEM medium containing 10% fetal bovine serum, 2 mM 1-glutamine, 250 μg/ml geneticin (G418) and 200 microgram/mL hygromycin B as selection markers, and 100 units/ml penicillin G, 100 microgram/mL streptomycin and 0.25 microgram/mL amphotericin B.
(§2) Cells were seeded at a density of 5×10^4 cells per well in Biocoat® Poly-D-lysine-coated black-wall, clear-bottom 96-well plates (Becton-Dickinson) and allowed to attach overnight in an incubator at 37° C. Cells were then washed two times with HBSS-HEPES buffer (Hanks Balanced Salt Solution without bicarbonate and phenol red, 20 mM HEPES, pH 7.4) using a Denley Cellwash plate washer (Labsystems). […]
(§3) Cells were excited with an Argon laser at 488 nm, and emission was measured through a 510-570 nm bandwidth emission filter (FLIPR™, Molecular Devices, Sunnyvale, Calif.). […] The peak increase in fluorescence intensity was recorded for each well. […] The peak fluorescence change in each drug-containing well was then expressed relative to the controls. […]

hEP3A = hEP3A (Homo sapiens (Human), UniProt P43115); experiment: FLIPR calcium signal, hEP3A; format: cell-based; conditions: HEK-293(EBNA) cells expressing hEP3A/Gqi5
hEP3A, sequence (P43115 whole entry): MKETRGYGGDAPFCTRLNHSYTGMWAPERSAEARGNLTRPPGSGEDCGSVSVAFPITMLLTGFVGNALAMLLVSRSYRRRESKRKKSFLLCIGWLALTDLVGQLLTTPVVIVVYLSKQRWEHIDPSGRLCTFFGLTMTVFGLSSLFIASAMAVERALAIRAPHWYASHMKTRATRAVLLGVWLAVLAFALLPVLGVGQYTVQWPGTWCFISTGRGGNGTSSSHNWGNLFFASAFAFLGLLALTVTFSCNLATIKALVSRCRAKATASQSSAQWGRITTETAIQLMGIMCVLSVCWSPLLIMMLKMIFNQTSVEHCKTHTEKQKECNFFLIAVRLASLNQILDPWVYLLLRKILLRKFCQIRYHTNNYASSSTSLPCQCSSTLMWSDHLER
Description: as §1, §2, §3

EP4 [1] = target: T1, EP4 (Homo sapiens (Human), UniProt P35408); experiment: cAMP assay, EP4; format: cell-based; conditions: HEK-EBNA cells expressing EP4
T1 sequence (P35408 whole entry): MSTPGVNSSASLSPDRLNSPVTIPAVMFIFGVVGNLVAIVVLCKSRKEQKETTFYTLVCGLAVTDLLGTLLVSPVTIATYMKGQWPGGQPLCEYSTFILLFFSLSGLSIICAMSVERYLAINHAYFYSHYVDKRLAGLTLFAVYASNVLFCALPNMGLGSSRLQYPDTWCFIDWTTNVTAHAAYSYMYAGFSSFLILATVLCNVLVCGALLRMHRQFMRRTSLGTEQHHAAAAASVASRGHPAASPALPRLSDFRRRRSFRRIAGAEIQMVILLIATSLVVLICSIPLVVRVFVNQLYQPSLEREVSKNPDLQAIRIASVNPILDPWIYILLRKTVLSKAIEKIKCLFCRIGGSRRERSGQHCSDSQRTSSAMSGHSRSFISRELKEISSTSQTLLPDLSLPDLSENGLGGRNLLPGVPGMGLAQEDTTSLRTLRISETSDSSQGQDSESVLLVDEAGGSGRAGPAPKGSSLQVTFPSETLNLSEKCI
Description: A 384-well drug plate was prepared to contain 6 test compounds, PGE2 and cAMP in 16 serial dilutions in triplicate, using a Biomek station. HEK-EBNA cells expressing a target PG receptor subtype (EP2 or EP4) were suspended in a stimulation buffer (HBSS, 0.1% BSA, 0.5 mM IBMX and 5 mM HEPES, pH 7.4) in a density of 10^4 cells/5 microliters. The reaction was initiated by mixing 5 microliters drug dilutions with 5 microliters of HEK-EBNA cells in a well, carried out for 30 min at room temperature, and followed by the addition of 5 microliters anti-cAMP acceptor beads in the control buffer with Tween-20 (25 mM NaCl, 0.03% Tween-20, 5 mM HEPES, pH 7.4). After 30 min in the dark at room temperature, the mixtures were incubated with 15 microliters biotinylated-cAMP/streptavidin donor beads in Lysis/Detection buffer (0.1% BSA, 0.3% Tween-20 and 5 mM HEPES, pH 7.4) for 45 min at room temperature. Fluorescence changes were read using a Fusion-alpha microplate reader.

EP2 [2] = target: T2, EP2 (Homo sapiens (Human), UniProt P43116); experiment: Competition binding ([3H]PGE2), EP2; conditions: HEK 293 cells stably expressing human EP2 receptors, [3H]PGE2 10 nM
T2 sequence (P43116 whole entry): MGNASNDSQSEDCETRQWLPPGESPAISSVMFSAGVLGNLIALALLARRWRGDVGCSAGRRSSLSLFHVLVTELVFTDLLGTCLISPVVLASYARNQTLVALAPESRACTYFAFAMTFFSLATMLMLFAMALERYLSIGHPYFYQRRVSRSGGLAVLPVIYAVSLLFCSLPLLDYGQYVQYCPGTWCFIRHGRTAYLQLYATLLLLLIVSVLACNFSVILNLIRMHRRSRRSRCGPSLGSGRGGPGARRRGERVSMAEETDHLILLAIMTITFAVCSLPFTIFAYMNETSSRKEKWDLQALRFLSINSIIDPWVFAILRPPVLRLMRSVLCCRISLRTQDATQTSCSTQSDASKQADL
Description: Competition binding experiments were performed in a medium containing Hank's balanced salt solution, HEPES 20 mM, pH 7.3, membranes (˜60 μg protein) or 2×10^5 cells from HEK 293 cells stably expressing human EP2 receptors, [^3H]PGE2 (10 nM) and various concentrations of test compounds in a total volume of 300 μl. Reaction mixtures were incubated at 23° C. for 60 min, and were filtered over Whatman GF/B filters under vacuum. Filters were washed three times with 5 ml ice-cold buffer containing 50 mM Tris/HCl (pH 7.3). Non-specific binding was estimated in the presence of excess unlabeled PGE2 (10 μM). Binding data fitted to the binding model for a single class of binding sites, using nonlinear regression analysis. IC50 values thus obtained were converted to Ki using the equation of Ki=(IC50/(1+[L]/KD) where [L] represents PGE2 concentration (10 nM) and KD the dissociation constant for [^3H]PGE2 at human EP2 receptors (40 nM).

hTP = hTP (Homo sapiens (Human), UniProt P21731); experiment: FLIPR calcium signal, hTP; format: cell-based; conditions: HEK-293(EBNA) cells expressing hTP
hTP, sequence (P21731 whole entry): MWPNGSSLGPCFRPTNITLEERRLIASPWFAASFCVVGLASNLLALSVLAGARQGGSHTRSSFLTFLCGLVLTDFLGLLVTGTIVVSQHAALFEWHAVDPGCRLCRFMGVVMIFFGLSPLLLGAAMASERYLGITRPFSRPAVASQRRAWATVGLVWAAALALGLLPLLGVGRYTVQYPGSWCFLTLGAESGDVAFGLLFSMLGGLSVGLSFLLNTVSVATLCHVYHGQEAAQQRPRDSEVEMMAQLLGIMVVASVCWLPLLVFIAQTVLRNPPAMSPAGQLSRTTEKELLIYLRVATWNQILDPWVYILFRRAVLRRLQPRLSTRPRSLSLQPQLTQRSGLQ
Description: as §1, §2, §3

hFP = hFP (Homo sapiens (Human), UniProt P43088); experiment: FLIPR calcium signal, hFP; format: cell-based; conditions: HEK-293(EBNA) cells expressing hFP
hFP, sequence (P43088 whole entry): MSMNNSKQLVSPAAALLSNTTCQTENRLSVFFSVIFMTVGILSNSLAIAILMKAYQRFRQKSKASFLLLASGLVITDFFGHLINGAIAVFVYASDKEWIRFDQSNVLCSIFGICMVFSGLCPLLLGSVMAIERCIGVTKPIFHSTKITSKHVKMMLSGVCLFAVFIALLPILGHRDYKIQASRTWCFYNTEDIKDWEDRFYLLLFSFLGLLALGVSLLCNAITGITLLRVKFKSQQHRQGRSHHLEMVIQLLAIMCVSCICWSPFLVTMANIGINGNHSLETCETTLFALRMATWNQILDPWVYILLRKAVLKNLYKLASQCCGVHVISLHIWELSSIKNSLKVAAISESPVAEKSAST
Description: as §1, §2, §3

EP4 [3] = target: T1, EP4; experiment: Competition binding, EP4
hDP = hDP (Homo sapiens (Human), UniProt Q13258); experiment: FLIPR calcium signal, hDP; format: cell-based; conditions: HEK-293(EBNA) cells expressing hDP/Gqs5
hDP, sequence (Q13258 whole entry): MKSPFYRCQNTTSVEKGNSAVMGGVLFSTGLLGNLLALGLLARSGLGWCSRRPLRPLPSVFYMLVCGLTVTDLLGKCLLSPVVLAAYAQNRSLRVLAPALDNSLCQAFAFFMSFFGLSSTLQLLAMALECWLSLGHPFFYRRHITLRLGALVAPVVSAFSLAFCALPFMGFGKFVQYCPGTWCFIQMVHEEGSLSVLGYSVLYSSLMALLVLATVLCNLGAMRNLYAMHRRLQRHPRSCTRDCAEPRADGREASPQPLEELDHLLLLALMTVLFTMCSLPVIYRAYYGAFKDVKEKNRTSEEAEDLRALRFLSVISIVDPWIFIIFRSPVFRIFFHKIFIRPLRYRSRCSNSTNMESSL
Description: as §1, §2, §3

EP2 [4] = target: T2, EP2; experiment: cAMP assay, EP2; format: cell-based; conditions: HEK-EBNA cells expressing EP2

hEP1, sequence (P34995 whole entry): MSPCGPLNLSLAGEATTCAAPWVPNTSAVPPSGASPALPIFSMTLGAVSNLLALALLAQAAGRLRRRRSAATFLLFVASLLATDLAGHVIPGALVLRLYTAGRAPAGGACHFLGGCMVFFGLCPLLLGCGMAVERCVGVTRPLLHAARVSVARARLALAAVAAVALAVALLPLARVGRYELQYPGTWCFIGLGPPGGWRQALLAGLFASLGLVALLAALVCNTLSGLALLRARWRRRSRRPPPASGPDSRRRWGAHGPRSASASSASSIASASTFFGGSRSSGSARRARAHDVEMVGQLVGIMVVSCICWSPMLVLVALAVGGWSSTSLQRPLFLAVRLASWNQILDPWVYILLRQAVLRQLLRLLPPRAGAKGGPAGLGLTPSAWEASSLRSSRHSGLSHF

Row | Compound | EC50 against hEP1 (hEP1) | EC50 against hEP3A (hEP3A) | EC50 (EP4 [1]) | EP2 Ki (EP2 [2]) [nM] | EC50 against hTP (hTP) | EC50 against hFP (hFP) | Ki (EP4 [3]) [nM] | EC50 against hDP (hDP) | Ki (EP2 [2]) [nM] | EC50 (EP2 [4]) [nM]
1 | Cc1cc(O)ccc1-c1cccc(C(O)/C=C/[C@H]2CCC(=O)N2CCCc2ccc(C(=O)O)cc2)c1 (single isomer, unassigned) [Example 9] | not active | not active | 326 nM | > 10000 | not active | not active | 3320 | not active | – | –
2 | O=C(O)c1ccc(CCCN2C(=O)CC[C@@H]2/C=C/C(O)c2cccc(Br)c2)cc1 (single isomer, unassigned) [Example 2] | – | – | 194 nM | – | – | – | 1210 | – | 7490 | 149
3 | O=C(O)c1ccc(CCCN2C(=O)CC[C@@H]2/C=C/C(O)c2ccccc2)cc1 (single isomer, unassigned) [Example 4] | – | – | 5540 nM | > 10000 | – | – | 4970 | – | – | –
4 | Cc1cc(Cl)ccc1-c1cc(F)cc(C(O)/C=C/[C@H]2CCC(=O)N2CCCc2ccc(C(=O)O)cc2)c1 (single isomer, unassigned) [Example 34] | – | – | 1740 nM | > 10000 | – | – | 4340 | – | – | –

The next compounds have a lower Ki (EP4 [3]) than those just listed; values first:

Row | EC50 against hEP1 (hEP1) | EC50 against hEP3A (hEP3A) | EC50 (EP4 [1]) | EP2 Ki (EP2 [2]) [nM] | EC50 against hTP (hTP) | EC50 against hFP (hFP) | Ki (EP4 [3]) [nM] | EC50 against hDP (hDP) | Ki (EP2 [2]) [nM] | EC50 (EP2 [4]) [nM] | Compound
5 | not active | not active | 3 nM | > 10000 | not active | not active | 25 | not active | – | – | Cc1cc(O)ccc1-c1cccc(C(O)/C=C/[C@H]2CCC(=O)N2CCCc2ccc(C(=O)O)cc2)c1 (single isomer, unassigned) [Example 10]
6 | – | – | 59 nM and 99 nM | > 10000 | – | – | 352 | – | – | – | Cc1cc(Cl)ccc1-c1cc(F)cc(C(O)/C=C/[C@H]2CCC(=O)N2CCCc2ccc(C(=O)O)cc2)c1 (single isomer, unassigned) [Example 35]
7 | – | – | 118 nM | > 10000 | – | – | 536 | – | – | – | Cc1cc(Cl)ccc1-c1ccc(C(O)/C=C/[C@H]2CCC(=O)N2CCCc2ccc(C(=O)O)cc2)s1 (stereo partly drawn) [Example 33, 4-[3-(2(R)-{(1E)-3-[5-(4-chloro-2-methylphenyl)thiophen-2-yl]-3-hydroxyprop-1-en-1-yl}-5-oxopyrrolidin-1-yl)propyl]benzoic acid]
8 | – | – | 2 nM | > 10000 | – | – | 159 | – | – | – | Cc1ccccc1-c1cccc(C(O)/C=C/[C@H]2CCC(=O)N2CCCc2ccc(C(=O)O)cc2)c1 (single isomer, unassigned) [Example 8]
